One molecule from patent publication US20220372448A1, “CELL LINE AND PRODUCING METHOD THEREOF” (University of Yamanashi, priority 2021, published 2022) can be followed below.

In this assay the test system is replicon replication in VeroE6/Rep #3 cells. The format is cell-based, SARS-CoV-2. The following applies: 72 hours.

Consider `CC(C)C(=O)OC[C@H]1O[C@@H](n2ccc(NO)nc2=O)[C@H](O)[C@@H]1O` [EIDD-2801, molnupiravir], for which the “effectiveness rate = (Replicon replication level)/(Cell survival rate)” value is “about 0.2” and the “luciferase activity (index of the replicon replication level) compared with DMSO negative control” value was “significantly decreased”.
